Measurements: article PMC12507957 (Drug Delivery and Translational Research, 2025)
Where two headings read alike, the source gives them in different places.

Experiments:
[1] = Stability studies of MTG in simple solvent systems with and without BHT; assay type: physicochemical
Protocol: Samples were analysed using Shimadzu liquid chromatographic system (Kyoto, Japan) with SPD-20A UV–vis detector set at 254 nm. A reverse phase ZORBAX Eclipse Plus C18 column (Agilent Technologies, 150 × 4.6 mm ID × 3.5 μm) coupled with a C18 guard column (Phenomenex SecurityGuard™, 4 × 3.0 mm ID × 5 μm) was employed as the stationary phase. A gradient elution method with acetonitrile and 0.1%v/v of formic acid as the mobile phase (30:70 to 70:30 (v/v) over 1 min and held until 4 min; then returned to 30:70 (v/v) from 4 to 6 min and held up until 10 min) at a flow rate of 1.2 mL/min was used. The injection volume was set at 100 μL and the total run time was 10 min with a retention time of ~ 4 min. The limits of detection and quantification were 0.47 and 1.43 μg/mL for a lower concentration drug range (0.5–10 μg/mL) and 4.29 and 13.01 μg/mL for a higher concentration drug range (10–175 μg/mL), respectively. The linearity for both calibration curves was excellent (R^2 > 0.999).

[2] = In vitro drug release of MTG from gels (Franz cell); details: nylon membrane, time point not clearly stated (steady release up to 2 h)
Protocol: (§1) The in vitro permeation study was performed in triplicate using Franz diffusion cell apparatus with a diffusion area of ~ 0.8 cm^2 and a receptor volume of ~ 3 mL. The porcine skin was thawed at room temperature and cut into an appropriate size before mounting on the Franz diffusion cells. The receptor compartment was filled with PBS containing 0.02%w/v of sodium azide and a selected antioxidant. The Franz diffusion cells were placed into a water bath to maintain the skin temperature at 32 ± 0.5 °C. […] After 48-h permeation studies, the mass balance studies were performed. The samples were extracted for MTG content overnight before HPLC analysis.
(§2) BHT at the optimised concentration was also added accordingly. The gels were evaluated for their drug content by mixing the gel in methanol for overnight extraction of MTG before HPLC analysis (Sect. HPLC analysis). In vitro drug release studies were carried out with a similar experimental setup as described in Sect. In vitro permeation and mass balance studies but porcine skin was replaced with a 0.45 µm nylon membrane filter and 40 μL of gel was loaded on the membrane at the donor compartment. Subsequent in vitro permeation and mass balance studies were performed as described in Sect. In vitro permeation and mass balance studies by loading 40 μL of the gel on the skin.

[3] = In vitro skin permeation of MTG from gel formulations, with infinite dose model fitting; assay type: in vitro ADME, porcine; details: for Permeation (cumulative amount of MTG permeated): 48 h
Protocol: as §1
To estimate the permeation parameters (P1 and P2), the in vitro permeation data were fitted to the infinite dose model (Eq. 1) using non-linear least squares. This infinite dose model was obtained by solving the diffusion equation using Laplace transform, which was subsequently numerically inverted using Weeks method and fitted to in Python 3.13.3 (Python Software Foundation, Wilmington, DE, US).1 Q¯s=J·A/s=P1ACd/ss/P2sinhs/P2
Here, Q¯s is the cumulative amount of drug permeated, J is the permeation flux, A is the permeation area, Cd is the initial concentration, h is the membrane thickness and s is the Laplace variable. The apparent partition and apparent diffusion coefficients, P1 and P2, are related to the h and the diffusion (D) and partition (K) coefficients, as defined in Eq. 2 and Eq. 3 [32]. The goodness of fit was measured based on the coefficient of determination (R^2) and root mean square error (RMSE).2 P1=Kh 3 P2=D/h^2
The permeability coefficient (Kp), steady-state flux (Jss) and lag time (tlag) can then be calculated using Eqs. 4, 5, and 6 [33] with the estimated values of P1 and P2 from the curve fitting.4 Kp=P1P2 5 Jss=KpCd 6 tlag=h^2/6D
Other permeation parameters were determined experimentally, where A was 0.7–0.8 cm^2, h was 0.0586 cm, Cd was 50 mg/mL and the volume of drug loaded was 40 µL.
as §2

[4] = Mass balance studies after skin permeation of MTG gels; assay type: in vitro ADME, porcine; details: pig
Protocol: as §1
Immediately post-application, any remaining MTG was swabbed from the skin surface with cotton buds and added into an Eppendorf tube. Subsequently, the surface of the skin was washed twice with 500 μL of methanol before adding to the same Eppendorf tube containing the cotton buds. The skin was removed from the dissembled Franz diffusion cell and cut into pieces before placing in another Eppendorf tube containing 1 mL of methanol. All samples were vortexed and analysed using HPLC (Sect. HPLC analysis).
as §2

[5] = 32 °C; cited from earlier work
[6] = rats; cited from earlier work
[7] = cited from earlier work

In the case of CC[C@@H]1CN2CCc3c([nH]c4cccc(OC)c34)[C@@H]2C[C@@H]1/C(=C\OC)C(=O)OC [MTG, mitragynine], the “Percentage recovery of MTG” value ([1]; 200 μg/mL in DMSO without BHT, 32 °C, after 96 h) is reported as 67.68 ± 1.22%, the “Percentage recovery of MTG” value ([1]; 200 μg/mL in Labrasol with 0.01%w/v BHT, 32 °C, after 96 h) is reported as 46.34 ± 2.49% and the “Percentage recovery of MTG” value ([1]; 200 μg/mL in Labrasol without BHT, 32 °C, after 96 h) is reported as 4.39 ± 0.70%. For the same compound, the “Percentage recovery of MTG” value ([1]; 200 μg/mL in Lauroglycol without BHT, 32 °C, after 96 h) was 30.84 ± 1.21%, the “Percentage recovery of MTG” value ([1]; 200 μg/mL in Maisine without BHT, 32 °C, after 96 h) was 19.65 ± 1.17% and the “Percentage recovery of MTG” value ([1]; 200 μg/mL in PG without BHT, 32 °C, after 96 h) was 73.82 ± 1.05%. For the same compound, the “Percentage recovery of MTG” value ([1]; 200 μg/mL in Transcutol without BHT, 32 °C, after 96 h) was 40.23 ± 5.46%, the “Percentage recovery of MTG” value ([1]; DMSO, PG and Transcutol with at least 0.05%w/v of BHT) was “above 80%” and the “Percentage recovery of MTG” value ([1]; in all solvents (without BHT) after 96 h) was under 80%. The “Percentage recovery of MTG” value ([1]; remaining solvents (Transcutol, Lauroglycol, Maisine, Labrasol) without BHT, after 96 h) was under 50%, the Drug release percentage ([2]; 1% MTG gel with DMSO) was 65.07 ± 7.59% and the Drug release percentage ([2]; 1% MTG gel with PG) was 57.45 ± 3.18%. For the same compound, the Drug release percentage ([2]; 1% MTG gel with Transcutol) was 78.48 ± 6.17%, the “Permeation (cumulative amount of MTG permeated)” value (from here on “Permeation”) ([3]; 1% MTG gel with DMSO and BHT) was 4.76 ± 0.79 μg/cm^2 and the “Jss (steady-state flux)” value ([3]; 1% MTG gel with PG and BHT) was 0.95 μg/cm^2/h. For the same compound, the “Permeation” value ([3]; 1% MTG gel with PG and BHT) was 4.92 ± 0.44 μg/cm^2, the “Permeation” value ([3]; 1% MTG gel with Transcutol and BHT) was 3.95 ± 0.81 μg/cm^2 and the “tlag (lag time)” value ([3]; across all gel formulations) was 9 to 14 h. It also gave a Papp at 1 % ([3]; pig, 1% MTG gel with DMSO and BHT, read-out: Kp (permeability coefficient) (converted)) of 0.00447 ×10⁻⁶ cm/s, a Papp at 1 % ([3]; pig, 1% MTG gel with PG and BHT, read-out: Kp (permeability coefficient) (converted)) of 0.00525 ×10⁻⁶ cm/s and a Papp at 48 h, 1 % ([3]; pig, 1% MTG gel with Transcutol and BHT, read-out: Kp (permeability coefficient) (converted)) of 0.00376 ×10⁻⁶ cm/s. It also gave a recovery at 48 h, 1 % ([4]; 1% MTG gel with DMSO and BHT, read-out: Total percentage (mass balance recovery)) of 81.3 ± 24.3%, a recovery at 48 h, 1 % ([4]; 1% MTG gel with PG and BHT, read-out: Total percentage (mass balance recovery)) of 85.5 ± 16.1% and a recovery at 48 h, 1 % ([4]; 1% MTG gel with Transcutol and BHT, read-out: Total percentage (mass balance recovery)) of 87.7 ± 10.8%. The recovery at 48 h, 1 % ([4]; all gel formulations (DMSO, PG, Transcutol) with BHT, read-out: Total drug recovery (mass balance)) was over 80%, the “Saturated solubility of MTG in PBS” value [5] was 77.10 ± 5.17 µg/mL and the Oral bioavailability [6] was 3%. For the same compound, the MTG loss ([7]; basic environments (pH 8 and 10), 40 °C over 8 h) was at most 20% and the MTG loss ([7]; pH 4 over 24 h) was ~ 11.2%.
